Test results: ChEMBL document CHEMBL1155052, “Hypaphorine, an indole alkaloid from Erythrina velutina, induced sleep on normal mice” (2008)

What was measured:
Assay type in all cases: functional
Conditions in all cases: route intraperitoneal
Mus musculus [1] = test: Increase in non-rapid eye movement sleep time in C57BL mouse assessed during first hour of administration at 300 mg/kg, ip
Mus musculus [2] = test: Increase in total sleep time in C57BL mouse assessed during first hour of administration at 300 mg/kg, ip
Mus musculus [3] = test: Decrease in waking duration in C57BL mouse assessed during first hour of administration at 300 mg/kg, ip; set-up: scale not given: the % may be the effect or the level left

For `C[N+](C)(C)[C@H](Cc1c[nH]c2ccccc12)C(=O)[O-]` [HYPAPHORINE], the Activity (Mus musculus [1]) was 33%, the Activity (Mus musculus [2]) was 32% and the Activity (Mus musculus [3]) was 16%.
